As a reminder, the logP is the decadic logarithm of the partition coefficient of the neutral form, usually between octanol and water. The low end stands for lower lipophilicity, the high end for higher lipophilicity. What is called log P is the decadic logarithm of the partition coefficient of the neutral form, usually between octanol and water. Lower therefore signals a more hydrophilic compound.

For series [1], the system named is Boophilus microplus Parkhurst strain, SP-resistant. The experiment in a line: Boophilus microplus - dip test. It counts as in vivo. Conditions: application rate 100 ppm; dip of engorged adult female ticks; laying of fertile eggs, after 7 days. The essentials: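 Efficacy reflects suppression of fertile egg laying: 0% means all eggs fertile, 100% none, read at 7 days, doubtful eggs kept ~42 days for larval hatch. Treatment was a complete dip of 8–10 engorged adult female ticks (SP-resistant Parkhurst strain) in a water dilution of a DMSO stock.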

Another series relates to Rhipicephalus sanguineus. Description: Rhipicephalus sanguineus - in vitro contact tests with adult brown dog ticks. It counts as in vivo. As for the experimental part:
Rhipicephalus sanguineus—In Vitro Contact Tests with Adult Brown Dog Ticks
For the coating of the test tubes, 9 mg of active ingredient are first dissolved in 1 ml of acetone p.a. and then diluted to the desired concentration with acetone p.a. 250 μl of the solution are distributed homogeneously on the inner walls and base of a 25 ml test tube by turning and rocking on an orbital shaker (rocking rotation at 30 rpm for 2 h). With 900 ppm active ingredient solution and internal surface 44.7 cm^2, given homogeneous distribution, an area-based dose of 5 μg/cm^2 is achieved.
After the solvent has evaporated off, the tubes are populated with 5-10 adult dog ticks (Rhipicephalus sanguineus), sealed with a perforated plastic lid and incubated in a horizontal position in the dark at room temperature and ambient humidity. After 48 h, efficacy is determined. To this end, the ticks are knocked to the floor of the tube and incubated on a hotplate at 45-50° C. for not more than 5 min. Ticks which remain motionless on the floor or move in such an uncoordinated manner that they are unable to deliberately avoid the heat by climbing upwards are considered to be dead or moribund.
An efficacy of 100% means that all the ticks were dead or moribund. 0% efficacy means that none of the ticks had been harmed.

For series [2], the system named is Ctenocephalides felis. The experiment in a line: Ctenocephalides felis - in vitro contact tests with adult cat fleas. In kind it is in vivo. To be noted: application rate 5 μg/cm^2 (=500 g/ha), after 48 h (dead or moribund). The essentials:
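Efficacy, as share of dead or moribund adult Ctenocephalides felis, read 48 h after placing 5-10 fleas in tubes coated by acetone solution (5 μg/cm^2 at 900 ppm). Incubation horizontal at room temperature, ambient humidity; immobile or uncoordinated fleas scored.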

Series [3] in a line: logP determination by HPLC on a reversed-phase column (C18), EEC Directive 79/831 Annex V.A8. In kind it is physicochemical. Conditions: for log P: HPLC-MS, reversed-phase column (C18); for logP^a): HPLC-MS method a), Table I-T3.
The test system of series [4] is Ctenocephalides felis. The experiment in a line: Ctenocephalides felis - oral test. It counts as in vivo. To be noted: application rate 100 ppm in citrated cattle blood; adult fleas; kill after 2 days. The essentials:
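DMSO stock, diluted in citrated cattle blood; ~20 unfed adult fleas feed through parafilm; % kill read at day 2 (0% = none killed).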

Another series deals with Lucilia cuprina. The experiment in a line: Lucilia cuprina test. In kind it is in vivo. To be noted: application rate 100 ppm; L1 larvae in minced horsemeat; kill after 2 days. The essentials: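 Mortality (%) of first-instar blowfly larvae, about 20 per vessel, recorded 2 days after exposure to compound-treated minced horsemeat. Compound dissolved in dimethyl sulphoxide, then water-diluted to the desired concentration.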

A further series concerns Amblyomma hebraeum. Description: Amblyomma hebraeum test (tick nymphs, immersion). It counts as in vivo. Conditions: application rate 100 ppm; tick nymphs immersed for one minute; kill after 42 days. How it is done:
Solvent: dimethyl sulphoxide
To produce an appropriate active ingredient formulation, 10 mg of active ingredient are mixed with 0.5 ml of dimethyl sulphoxide, and the concentrate is diluted with water to the desired concentration.
Tick nymphs (Amblyomma hebraeum) are placed into perforated plastic beakers and immersed in the desired concentration for one minute. The ticks are transferred on filter paper into a Petri dish and stored in a climate-controlled cabinet.
After 42 days, the kill in % is determined. 100% means that all of the ticks have been killed; 0% means that none of the ticks have been killed.

The subject of the next series is Boophilus microplus. The experiment in a line: Boophilus microplus - injection test. In kind it is in vivo. Conditions: application rate 20 μg/animal; injected into engorged adult female ticks; laying of fertile eggs, after 7 days. The essentials:
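Compound dissolved in DMSO (10 mg per 0.5 ml, then diluted with DMSO to test concentration); 1 μl injected into the abdomen of 5 engorged adult female ticks, which are then held in a climate-controlled room. Efficacy judged after 7 days by laying of fertile eggs.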

The subject of another series is Musca domestica. Description: Musca domestica test. To be noted: application rate 100 ppm; adult houseflies; kill after 2 days. In kind it is in vivo. The method, boiled down:
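10 adult flies per vessel; sugar-solution sponge dosed with active ingredient formulation (DMSO concentrate diluted in water to desired concentration). Read-out: % kill at 2 days.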

Setting [5] is: application rate 5 μg/cm^2, after 48 h (dead or moribund).

For `Cc1cc(C(F)(C(F)(F)F)C(F)(F)F)cc(C)c1-c1cnn(-c2cnc(Cl)c(C(=O)NC3(C#N)CC3)c2)c1` [I-T4-4], the efficacy (in [1]; with Rhipicephalus sanguineus (setting [5]); in the series on Ctenocephalides felis [2]; in the series on Ctenocephalides felis [4]; with Lucilia cuprina; in the series with Amblyomma hebraeum) was 100% each time. Further, the efficacy with Boophilus microplus worked out at 100%. For the same compound, the logP in series [3] (HPLC, reversed-phase C18, acetonitrile/water with formic acid, 55° C.) is 4.3.

`Cc1cc(C(F)(C(F)(F)F)C(F)(F)F)cc(C(F)(F)F)c1-n1cc(-c2cnc(C)c(C(=O)NC3(C#N)CC3)c2)cn1` [I-T3-119]: the efficacy (in series [1]; in the series on Rhipicephalus sanguineus (setting [5]); in the series with Ctenocephalides felis [2]; in the series on Musca domestica; with Ctenocephalides felis [4]; in the series with Lucilia cuprina) was 100% throughout. Also, the efficacy in the series on Amblyomma hebraeum and in the series on Boophilus microplus was 100% each time. In addition, in series [3], the “log P” value is given as 3.6.

With `N#CC1(NC(=O)c2cc(-c3cnn(-c4c(Cl)cc(C(F)(C(F)(F)F)C(F)(F)F)cc4Cl)c3)cnc2Cl)CC1` [I-T3-43], the efficacy in series [1] is listed as 100%; in the series on Rhipicephalus sanguineus (setting [5]) it was 80%; with Ctenocephalides felis [2] it was 100%; in the series with Musca domestica, 100%; in the series with Ctenocephalides felis [4], 100%; in the series with Lucilia cuprina, 100%. Also, the efficacy in the series with Amblyomma hebraeum and in the series on Boophilus microplus was 100% in each case. Also, in series [3], the “logP^a)” value was found to be 3.8.

On to `Cc1cc(C(F)(C(F)(F)F)C(F)(F)F)cc(C(F)(F)F)c1-n1cc(-c2cnc(Cl)c(C(=O)NC3CC3)c2)cn1` [I-T3-106], for which the efficacy (in [1]; with Rhipicephalus sanguineus (setting [5]); with Ctenocephalides felis [2]; with Musca domestica; with Ctenocephalides felis [4]; with Lucilia cuprina) was 100% in each case. Besides, the efficacy in the series with Amblyomma hebraeum and in the series on Boophilus microplus was 100% throughout. In addition, the log partition coefficient (log P) in series [3] is on record as 4.0.

Regarding `N#CC1(NC(=O)c2cc(-c3cnn(-c4ccc(C(F)(C(F)(F)F)C(F)(F)F)cc4C(F)(F)F)c3)ccc2Cl)CC1` [I-T3-53], the efficacy in [1] amounted to 100%; in the series on Rhipicephalus sanguineus (setting [5]) it was 100%; in the series on Musca domestica, 100%; in the series on Ctenocephalides felis [4] it was 100%; in the series with Lucilia cuprina, 100%; with Amblyomma hebraeum, 80%. Moreover, the efficacy in the series on Boophilus microplus turned out to be 100%. Moreover, the “logP^a)” value in series [3] was determined as 4.3.

In the case of `Cc1cc(C(F)(C(F)(F)F)C(F)(F)F)cc(C)c1-n1cc(-c2cnc(C)c(C(=O)NC3CC3)c2)cn1` [I-T3-96], the efficacy (in series [1]; in the series with Rhipicephalus sanguineus (setting [5]); with Ctenocephalides felis [2]; with Musca domestica; with Ctenocephalides felis [4]; in the series with Lucilia cuprina) was 100% each time. The efficacy in the series on Amblyomma hebraeum and in the series with Boophilus microplus was 100% throughout. Further, in [3], the log partition coefficient (log P) amounted to 3.3.

Turning to `N#CC1(NC(=O)c2cc(-c3cnn(-c4c(Cl)cc(C(F)(C(F)(F)F)C(F)(F)F)cc4C(F)(F)F)c3)cnc2Cl)CC1` [I-T3-114], the efficacy in series [1] is listed as 100%; with Rhipicephalus sanguineus (application rate 1 μg/cm^2, after 48 h (dead or moribund)), 100%; with Ctenocephalides felis [2], 100%; in the series with Musca domestica it was 100%; with Ctenocephalides felis [4] it was 100%; with Lucilia cuprina, 100%. In addition, the efficacy with Amblyomma hebraeum and with Boophilus microplus was 100% throughout. In addition, in [3], the “log P” value amounted to 4.0.

For the compound `CCc1cc(C(F)(C(F)(F)F)C(F)(F)F)cc(C)c1-n1cc(-c2ccc(Cl)c(C(=O)NC3CC3)c2)cn1` [I-T3-44], the efficacy (in series [1]; with Rhipicephalus sanguineus (setting [5]); in the series on Ctenocephalides felis [2]; in the series on Ctenocephalides felis [4]; in the series with Lucilia cuprina; with Amblyomma hebraeum) was 100% each time. Further, in the series with Boophilus microplus, the efficacy turned out to be 100%. Also, the “logP^a)” value in series [3] stood at 4.7.

For the compound `N#CC1(NC(=O)c2cc(-c3cnn(-c4c(Cl)cc(C(F)(C(F)(F)F)C(F)(F)F)cc4C(F)(F)F)c3)ccc2Cl)CC1` [I-T3-57], the efficacy (in series [1]; in the series on Ctenocephalides felis [2]; in the series on Musca domestica; in the series on Ctenocephalides felis [4]; in the series on Lucilia cuprina; with Amblyomma hebraeum) was 100% throughout. This compound also yielded an efficacy in the series on Boophilus microplus of 100%. Moreover, the “logP^a)” value in [3] came out at 4.3.

Consider `CN(C(=O)c1cc(-c2cnn(-c3c(Cl)cc(C(F)(C(F)(F)F)C(F)(F)F)cc3C(F)(F)F)c2)cnc1Cl)C1(C#N)CC1` [I-T3-116], for which the efficacy (in series [1]; with Ctenocephalides felis [2]; in the series on Musca domestica; in the series on Ctenocephalides felis [4]; in the series with Lucilia cuprina; in the series on Amblyomma hebraeum) was 100% throughout. Further, in the series with Boophilus microplus, the efficacy amounted to 100%. For the same compound, the lipophilicity (log P) in [3] is listed as 4.3.

For `CN(C(=O)c1cc(-c2cnn(-c3c(Cl)cc(C(F)(C(F)(F)F)C(F)(F)F)cc3Cl)c2)cnc1Cl)C1CC1` [I-T3-100], the efficacy (in series [1]; with Ctenocephalides felis [2]; in the series on Musca domestica; in the series on Ctenocephalides felis [4]; with Lucilia cuprina; in the series on Amblyomma hebraeum) was 100% in each case. Also, in the series on Boophilus microplus, the efficacy is reported as 100%. For the same compound, in series [3], the “log P” value is listed as 4.4.

On to `CCc1cc(C(F)(C(F)(F)F)C(F)(F)F)ccc1-n1cc(-c2cnc(Cl)c(C(=O)NC3CC3)c2)cn1` [I-T3-104], for which the efficacy (in series [1]; in the series with Rhipicephalus sanguineus (setting [5]); with Musca domestica; in the series on Ctenocephalides felis [4]; with Lucilia cuprina; with Amblyomma hebraeum) was 100% each time. In addition, the efficacy in the series on Boophilus microplus worked out at 100%. For the same compound, in [3], the “log P” value turned out to be 4.2.

For the compound `CCc1cc(C(F)(C(F)(F)F)C(F)(F)F)ccc1-n1cc(-c2cnc(Cl)c(C(=O)NC3(C#N)CC3)c2)cn1` [I-T3-105], the efficacy was determined as 100% in the series with Rhipicephalus sanguineus (application rate 0.2 μg/cm^2, after 48 h (dead or moribund)); 80% in the series on Musca domestica; 100% in the series with Ctenocephalides felis [4]; 100% in the series on Lucilia cuprina; 85% in the series on Amblyomma hebraeum; 100% with Boophilus microplus. For the same compound, the “log P” value in series [3] was found to be 4.1.

Turning to `Cc1ncc(-c2cnn(-c3c(Cl)cc(C(F)(C(F)(F)F)C(F)(F)F)cc3C(F)(F)F)c2)cc1C(=O)N(C)C1(C#N)CC1` [I-T3-131], the efficacy (in [1]; with Ctenocephalides felis [2]; in the series with Musca domestica; with Ctenocephalides felis [4]; in the series with Lucilia cuprina; in the series with Amblyomma hebraeum) was 100% each time. Moreover, in the series on Boophilus microplus, the efficacy came out at 100%. Further, in series [3], the log partition coefficient (log P) is 3.9.

Source of the values: patent US9758485B2, “Compounds for controlling arthropods” (priority 2013, dated 2017).
